Assay results from patent publication US11534412B2, “Application of totarol and pharmaceutical composition containing totarol” (Emergopharm SP. Z O.O. SP.K., priority 2017, dated 2022).

Test system: Enterococcus faecalis - clinical strain
Test: Determination of the MIC value of totarol, broth dilution in 96-well plates with OD and quantitative culture
Format: cell-based
Conditions: for OD, average of 3 measurements: 620 nm
Experimental: Test of antibacterial activity of totarol using DMI (dimethylisosorbide) as a solvent.
1 ml of the suspension was collected to 9 ml of a TSB broth ([…]). Suspensions with a dilution of 10^−6 were prepared in the described way. A suspension with a cell density of 10^5 cfu/ml was selected for further investigations. For each strain, 2 96-well plates were prepared: the first one was intended for the OD measurement, the second one—for quantitative culture on solid media. • A/ to wells B1-D1, B2-D2 and B-D 4-11, 100 µl of the broth were added; • B/ to wells B3-D3, 200 µl of the broth were added; • C/ to wells B1-D1, 1 µl of stock I was added; • D/ to wells B2-D2, 1 µl of stock II was added; • E/ to wells B3-D3, 2 µl of stock III were added. Using a multichannel pipette, 100 µl of the sample were collected from each of the B3-D3 wells and placed in wells B4-D4 (mixing by sucking the content in and letting it out for 5 times). The pipette tips were replaced and 100 µl of the content were collected from of the B4-D4 wells, and placed in wells B5-D5, mixing as previously. These operations were repeated through the wells B11-D11. The content in the B11-D11 wells was mixed, and 100 µl of the fluid were collected and discarded. This way, a series of dilutions of totarol samples in DMI in the range of 0.32% to 0.0004% was obtained. Then, 100 µl of a corresponding bacterial culture were added to the wells B, C, D 1-11. In consequence, a change in the final concentration range occurred, to 0.16%-0.0002%. Control Preparation: • Negative control: 100 µl of the broth+1 pl DMI were added to the Al well. • Positive control (I): 100 µl of the broth with the bacterial culture were added to the wells E1-G1. • Diluent positive control (II): 100 µl of the broth with the bacterial culture+1 pl DMI were added to the wells E2-G2. The OD value in the individual wells was read at the wavelength of 620 nm (read time 0). From the second 96-well plate, a culture was inoculated by a quantitative method from every dilution onto a well with a proper solid medium, and incubated for 24 h at 37° C. under aerobic or anaerobic conditions, depending on the strain. The plates were incubated under aerobic conditions or in an atmosphere of an elevated CO2 concentration (for the strains requiring it) in an incubator at 37° C. The OD was read after 8 h, 16 h, and 24 h, respectively. Before every OD measurement, the contents of the wells were mixed delicately. In parallel to the OD readout, cultures we inoculated from the second 96-well plate, from every dilution, into plates with a proper solid medium, and incubated for 24 h at 37° C., under aerobic or anaerobic conditions. For the analysis of the experimental results, an average value of the OD measurement obtained from three repetitions in the individual times (0, 8, 16, and 24 h) for the individual microbes (Gardnerella vaginalis, Streptococcus agalactiae, Enterococcus faecalis, Lactobacillus gasseri/plantarum) was taken. Additionally, the number of bacteria grown on solid media was taken into account. The results of the tests confirm the specific, concentration-dependent selectiveness, and the high antibacterial effectiveness of totarol against the pathogenic microorganisms: Gardnerella vaginalis, Streptococcus agalactiae, Enterococcus faecalis at low MIC values safe for bacteria of the Lactobacillus genus.

In the case of `CC(C)c1c(O)ccc2c1CC[C@H]1C(C)(C)CCC[C@]21C` [Totarol, totarol], the MIC value (E. faecalis) is reported as 0.0025%, the Inoculation cfu/ml (totarol 0.0002%, 0 h) is reported as 4 × 10^5 cfu/ml and the “OD, average of 3 measurements” value (totarol 0.0002%, 0 h) is reported as 0.292. For the same molecule, the Inoculation cfu/ml (totarol 0.0002%, 8 h) was 4.1 × 10^5 cfu/ml, the “OD, average of 3 measurements” value (totarol 0.0002%, 8 h) was 0.295 and the Inoculation cfu/ml (totarol 0.0002%, 16 h) was 2.1 × 10^6 cfu/ml. For the same molecule, the “OD, average of 3 measurements” value (totarol 0.0002%, 16 h) was 0.490, the Inoculation cfu/ml (totarol 0.0002%, 24 h) was 1.6 × 10^7 cfu/ml and the “OD, average of 3 measurements” value (totarol 0.0002%, 24 h) was 0.681. For the same molecule, the Inoculation cfu/ml (totarol 0.0004%, 0 h) was 3 × 10^5 cfu/ml, the “OD, average of 3 measurements” value (totarol 0.0004%, 0 h) was 0.298 and the Inoculation cfu/ml (totarol 0.0004%, 8 h) was 2.1 × 10^5 cfu/ml. The “OD, average of 3 measurements” value (totarol 0.0004%, 8 h) was 0.303, the Inoculation cfu/ml (totarol 0.0004%, 16 h) was 1.1 × 10^6 cfu/ml and the “OD, average of 3 measurements” value (totarol 0.0004%, 16 h) was 0.491. For the same molecule, the Inoculation cfu/ml (totarol 0.0004%, 24 h) was 1.9 × 10^7 cfu/ml, the “OD, average of 3 measurements” value (totarol 0.0004%, 24 h) was 0.677 and the Inoculation cfu/ml (totarol 0.0007%, 0 h) was 2.5 × 10^5 cfu/ml. The “OD, average of 3 measurements” value (totarol 0.0007%, 0 h) was 0.288, the Inoculation cfu/ml (totarol 0.0007%, 8 h) was 3.1 × 10^5 cfu/ml and the “OD, average of 3 measurements” value (totarol 0.0007%, 8 h) was 0.291. The Inoculation cfu/ml (totarol 0.0007%, 16 h) was 3.8 × 10^5 cfu/ml, the “OD, average of 3 measurements” value (totarol 0.0007%, 16 h) was 0.445 and the Inoculation cfu/ml (totarol 0.0007%, 24 h) was 2.1 × 10^7 cfu/ml. For the same molecule, the “OD, average of 3 measurements” value (totarol 0.0007%, 24 h) was 0.602, the Inoculation cfu/ml (totarol 0.0013%, 0 h) was 4 × 10^5 cfu/ml and the “OD, average of 3 measurements” value (totarol 0.0013%, 0 h) was 0.293. The Inoculation cfu/ml (totarol 0.0013%, 8 h) was 6 × 10^4 cfu/ml, the “OD, average of 3 measurements” value (totarol 0.0013%, 8 h) was 0.297 and the Inoculation cfu/ml (totarol 0.0013%, 16 h) was 6 × 10^4 cfu/ml. For the same molecule, the “OD, average of 3 measurements” value (totarol 0.0013%, 16 h) was 0.399, the Inoculation cfu/ml (totarol 0.0013%, 24 h) was 1 × 10^7 cfu/ml and the “OD, average of 3 measurements” value (totarol 0.0013%, 24 h) was 0.549. The Inoculation cfu/ml (totarol 0.0025%, 0 h) was 5 × 10^5 cfu/ml, the “OD, average of 3 measurements” value (totarol 0.0025%, 0 h) was 0.284 and the Inoculation cfu/ml (totarol 0.0025%, 8 h) was 0 cfu/ml. The “OD, average of 3 measurements” value (totarol 0.0025%, 8 h) was 0.297, the Inoculation cfu/ml (totarol 0.0025%, 16 h) was 0 cfu/ml and the “OD, average of 3 measurements” value (totarol 0.0025%, 16 h) was 0.295. For the same molecule, the Inoculation cfu/ml (totarol 0.0025%, 24 h) was 0 cfu/ml, the “OD, average of 3 measurements” value (totarol 0.0025%, 24 h) was 0.302 and the Inoculation cfu/ml (totarol 0.005%, 0 h) was 6 × 10^5 cfu/ml. For the same molecule, the “OD, average of 3 measurements” value (totarol 0.005%, 0 h) was 0.302, the Inoculation cfu/ml (totarol 0.005%, 8 h) was 0 cfu/ml and the “OD, average of 3 measurements” value (totarol 0.005%, 8 h) was 0.349. For the same molecule, the Inoculation cfu/ml (totarol 0.005%, 16 h) was 0 cfu/ml, the “OD, average of 3 measurements” value (totarol 0.005%, 16 h) was 0.320 and the Inoculation cfu/ml (totarol 0.005%, 24 h) was 0 cfu/ml. The “OD, average of 3 measurements” value (totarol 0.005%, 24 h) was 0.296, the Inoculation cfu/ml (totarol 0.01%, 0 h) was 4.1 × 10^5 cfu/ml and the “OD, average of 3 measurements” value (totarol 0.01%, 0 h) was 0.302. The Inoculation cfu/ml (totarol 0.01%, 8 h) was 0 cfu/ml, the “OD, average of 3 measurements” value (totarol 0.01%, 8 h) was 0.419 and the Inoculation cfu/ml (totarol 0.01%, 16 h) was 0 cfu/ml. For the same molecule, the “OD, average of 3 measurements” value (totarol 0.01%, 16 h) was 0.368, the Inoculation cfu/ml (totarol 0.01%, 24 h) was 0 cfu/ml and the “OD, average of 3 measurements” value (totarol 0.01%, 24 h) was 0.306. The Inoculation cfu/ml (totarol 0.02%, 0 h) was 3.1 × 10^5 cfu/ml, the “OD, average of 3 measurements” value (totarol 0.02%, 0 h) was 0.322 and the Inoculation cfu/ml (totarol 0.02%, 8 h) was 0 cfu/ml. For the same molecule, the “OD, average of 3 measurements” value (totarol 0.02%, 8 h) was 0.384, the Inoculation cfu/ml (totarol 0.02%, 16 h) was 0 cfu/ml and the “OD, average of 3 measurements” value (totarol 0.02%, 16 h) was 0.374. The Inoculation cfu/ml (totarol 0.02%, 24 h) was 0 cfu/ml, the “OD, average of 3 measurements” value (totarol 0.02%, 24 h) was 0.371 and the Inoculation cfu/ml (totarol 0.04%, 0 h) was 2.6 × 10^5 cfu/ml. For the same molecule, the “OD, average of 3 measurements” value (totarol 0.04%, 0 h) was 0.552, the Inoculation cfu/ml (totarol 0.04%, 8 h) was 0 cfu/ml and the “OD, average of 3 measurements” value (totarol 0.04%, 8 h) was 0.667. The Inoculation cfu/ml (totarol 0.04%, 16 h) was 0 cfu/ml, the “OD, average of 3 measurements” value (totarol 0.04%, 16 h) was 0.555 and the Inoculation cfu/ml (totarol 0.04%, 24 h) was 0 cfu/ml. The “OD, average of 3 measurements” value (totarol 0.04%, 24 h) was 0.538, the Inoculation cfu/ml (totarol 0.08%, 0 h) was 3.2 × 10^5 cfu/ml and the “OD, average of 3 measurements” value (totarol 0.08%, 0 h) was 0.448. The Inoculation cfu/ml (totarol 0.08%, 8 h) was 0 cfu/ml, the “OD, average of 3 measurements” value (totarol 0.08%, 8 h) was 0.539 and the Inoculation cfu/ml (totarol 0.08%, 16 h) was 0 cfu/ml. For the same molecule, the “OD, average of 3 measurements” value (totarol 0.08%, 16 h) was 0.499, the Inoculation cfu/ml (totarol 0.08%, 24 h) was 0 cfu/ml and the “OD, average of 3 measurements” value (totarol 0.08%, 24 h) was 0.491. For the same molecule, the Inoculation cfu/ml (totarol 0.16%, 0 h) was 6 × 10^5 cfu/ml, the “OD, average of 3 measurements” value (totarol 0.16%, 0 h) was 0.638 and the Inoculation cfu/ml (totarol 0.16%, 8 h) was 0 cfu/ml. For the same molecule, the “OD, average of 3 measurements” value (totarol 0.16%, 8 h) was 0.651, the Inoculation cfu/ml (totarol 0.16%, 16 h) was 0 cfu/ml and the “OD, average of 3 measurements” value (totarol 0.16%, 16 h) was 0.510. For the same molecule, the Inoculation cfu/ml (totarol 0.16%, 24 h) was 0 cfu/ml and the “OD, average of 3 measurements” value (totarol 0.16%, 24 h) was 0.369.
